Laboratory results taken from patent EP0565593B1, “REDUCING PESTICIDAL INTERACTIONS IN CROPS” (priority 1990, dated 1992).
Values joined by “and” are separate entries in the source; they are usually repeats but may differ in a detail not shown here. Equal entries are not always repeated. Where two headings read alike, the source gives them in different places.

Assays:
Velvetleaf (VELE) [1] = experiment: Multi-crop greenhouse test, soil-applied (Examples 65, 66; Tables 64, 65); format: in vivo, Abutilon theophrasti
Experimental: Tests according to this invention in various crops indicate widespread application of the invention. In Examples 62-66 below are described tests with a variety of herbicides contacted with COUNTER® 15G in the presence and absence of MON-7400 (Antidote No. 12); MON-13900 (No. 1); MON-4660 (No. 16) and flurazole (No. 16). Those tests were conducted according to Procedures IV or V described above and illustrated further in other foregoing examples. Plants used in all tests were, for crops (as abbreviated in parentheses); cotton (COTT); soybean (SOBE); CORN, grain sorghum (GRSO); wheat (WHEA) and RICE, and the weeds giant foxtail (GIFT) and velvetleaf (VELE). The data in the tables below represent averages of two replications.
In this test the crops and weeds were planted 1.3 cm deep in 13.7 cm X 27.7 cm pans containing Dupo silt loam soil. The test safeners were applied in acetone solution and COUNTER 15G as dry granules to soil cover layers and incorporated by shaking in a bag. Treated cover layers were placed on seeded pans which were transferred to greenhouse benches and subirrigated. Herbicide was applied POE six (6) days after PPI initiation and observations of plant injury made ten (10) days later; results are shown in Table 61. The herbicide used in this example was BEACON (No. 8).
In another test in the several crops and weeds used in this test series, the herbicidal component was MON-12000 (No. 1); the other components were the same. the procedure used in this test was the same as that described in Example 62, modified to use a light overhead irrigation (about 0.32 cm/day) during days 4-7 of the test. Table 64 […]

Giant foxtail (GIFT) = experiment: whole plant or invertebrate; format: in vivo
Corn = experiment: Greenhouse test Procedure VI: biocide and antidote in furrow, herbicide PPI in cover layer (Examples 43-47, 59-61; Tables 42-46, 58-60); format: in vivo
Method in brief: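 Corn seed furrows given granular biocide (COUNTER 15G, 1.1 mg a.i./cm row) and antidote (0.37 mg a.i./cm row); herbicide in acetone or acetone/water incorporated into cover-layer soil (PPI). Duplicate pots in greenhouse, subirrigated plus overhead watering; corn injury observed, in some series thirteen days after PPI, against untreated, herbicide and herbicide+biocide controls.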

Velvetleaf (VELE) [2] = experiment: whole plant or invertebrate; format: in vivo, Abutilon theophrasti; settings: PPI
Shattercane (SHCA) = format: in vivo
[3] = Table 64, Herb. No. 1 0.018 Kg/Ha + Biocide No. 1 8.96 Kg/Ha + Antidote 4.48 Kg/Ha
[4] = Table 64, Herb. No. 1 0.07 Kg/Ha + Biocide No. 1 8.96 Kg/Ha + Antidote 4.48 Kg/Ha
[5] = Table 64, Herb. No. 1 0.28 Kg/Ha + Biocide No. 1 8.96 Kg/Ha + Antidote 4.48 Kg/Ha
[6] = Table 65, Herb. No. 1 0.018 Kg/Ha + Biocide No. 1 8.96 Kg/Ha + Antidote 4.48 Kg/Ha
[7] = Table 65, Herb. No. 1 0.07 Kg/Ha + Biocide No. 1 8.96 Kg/Ha + Antidote 4.48 Kg/Ha
[8] = Table 65, Herb. No. 1 0.28 Kg/Ha + Biocide No. 1 8.96 Kg/Ha + Antidote 4.48 Kg/Ha
[9] = Antidote + Biocide No. 1 in furrow, Herbicide No. 6 0.14 Kg/Ha PPI
[10] = Antidote + Biocide No. 1 in furrow, Herbicide No. 11 0.0044 Kg/Ha PPI
[11] = Antidote + Biocide No. 1 in furrow, Herbicide No. 12 0.0044 Kg/Ha PPI
[12] = Antidote + Biocide No. 1 in furrow, Herbicide No. 13 0.0011 Kg/Ha PPI
[13] = Antidote + Biocide No. 1 in furrow, Herbicide No. 13 0.0022 Kg/Ha PPI
[14] = Antidote + Biocide No. 1 in furrow, Herbicide No. 14 0.07 Kg/Ha PPI
[15] = Antidote + Biocide No. 1 in furrow, Herbicide No. 16 0.07 Kg/Ha PPI, 13 days
[16] = Antidote + Biocide No. 1 in furrow, Herbicide No. 17 0.14 Kg/Ha PPI, 13 days
[17] = Antidote + Biocide No. 1 in furrow, Herbicide No. 18 0.04 Kg/Ha PPI, 13 days
[18] = Antidote + Biocide No. 1 in furrow, Herbicide No. 20 1.12 Kg/Ha PPI, 13 days
[19] = Antidote + Biocide No. 1 in furrow, Herbicide No. 22 0.28 Kg/Ha PPI, 13 days
[20] = Antidote + Biocide No. 1 in furrow, Herbicide No. 24 0.14 Kg/Ha PPI, 13 days
[21] = Antidote + Biocide No. 1 in furrow, Herbicide No. 25 0.14 Kg/Ha PPI, 13 days
[22] = Antidote + Biocide No. 1 in furrow, Herbicide No. 26 2.24 Kg/Ha PPI, 13 days
[23] = Antidote + Biocide No. 1 in furrow, Herbicide No. 28 0.04 Kg/Ha PPI, 13 days
[24] = Antidote 4.48 + Biocide No. 1 8.96 Kg/Ha PPI, Herb. No. 8 0.07, 5 DAP, before herbicide application
[25] = Antidote 4.48 + Biocide No. 1 8.96 Kg/Ha PPI, Herb. No. 8 0.07 POE, 13 DAP
[26] = Antidote 4.48 + Biocide No. 1 8.96 Kg/Ha PPI, Herbicide No. 7 0.28 POE, 13 days after planting
[27] = Table 14: Herbicide No. 7 (ACCENT) 0.84 Kg/Ha POE + Biocide No. 2 8.96 Kg/Ha PPI + antidote 4.48 Kg/Ha PPI, 13 days after planting, 8 days after herbicide
[28] = […], 13 days after planting, 8 days after herbicide
[29] = […], observed 10 days after herbicide application

SMILES: CC1(C)OC(c2ccco2)CN1C(=O)C(Cl)Cl (stereo not drawn) [compound 1]
- % Inhibition VELE (Velvetleaf (VELE) [1]; [3]): 65%
- % Inhibition VELE (Velvetleaf (VELE) [1]; [4]): 85%
- % Inhibition VELE (Velvetleaf (VELE) [1]; [5]): 95%
- % Inhibition VELE (Velvetleaf (VELE) [1]; [6]): 10%
- % Inhibition VELE (Velvetleaf (VELE) [1]; [7]): 75%
- % Inhibition VELE (Velvetleaf (VELE) [1]; [8]): 90%
- % Inhibition GIFT (Giant foxtail (GIFT); […], PPI, 13 days after PPI (Table 31)): 70%
- % Inhibition GIFT (Giant foxtail (GIFT); in vivo): 45% and 60% and 85% and 65% and 90% and 55%
- % Inhibition Corn (Corn; [9]): 15%
- % Inhibition Corn (Corn; [10]): 15%
- % Inhibition Corn (Corn; [11]): 20%
- % Inhibition Corn (Corn; [12]): 40%
- % Inhibition Corn (Corn; [13]): 70%
- % Inhibition Corn (Corn; [14]): 10%
- % Inhibition Corn (Corn; [15]): 45%
- % Inhibition Corn (Corn; [16]): 45%
- % Inhibition Corn (Corn; [17]): 10%
- % Inhibition Corn (Corn; [18]): 25%
- % Inhibition Corn (Corn; [19]): 5%
- % Inhibition Corn (Corn; [20]): 25%
- % Inhibition Corn (Corn; [21]): 15%
- % Inhibition Corn (Corn; [22]): 20%
- % Inhibition Corn (Corn; [23]): 20%
- % Inhibition VELE (Velvetleaf (VELE) [2]; […], 13 days after PPI (Table 31)): 85%
- % Inhibition VELE (Velvetleaf (VELE) [2]; antidote 4.48 Kg/Ha + Herb. […], 13 days after planting): 90%
- % Inhibition 5 DAP SHCA (Shattercane (SHCA); [24]): 0%
- % Inhibition 13 DAP SHCA (Shattercane (SHCA); [25]): 80%
- % Inhibition SHCA (Shattercane (SHCA); [26]): 75%
- % Inhibition SHCA (Shattercane (SHCA); [27]): 70%
- % Inhibition SHCA (Shattercane (SHCA); [28]): 90%
- % Inhibition SHCA (Shattercane (SHCA); […], observed 9 days later (Table 29)): 70%
- % Inhibition SHCA (Shattercane (SHCA); […], observed 9 days later (Table 30)): 30%
- % Inhibition SHCA (Shattercane (SHCA); [29]): 55%
- % Inhibition 5 DAP SHCA (Shattercane (SHCA); in vivo): 20%
- % Inhibition 13 DAP SHCA (Shattercane (SHCA); in vivo): 75%

SMILES: COC(=O)COC(c1ccccc1)c1ccccc1 [compound 12]
- % Inhibition VELE (Velvetleaf (VELE) [1]; [3]): 50%
- % Inhibition VELE (Velvetleaf (VELE) [1]; [4]): 85%
- % Inhibition VELE (Velvetleaf (VELE) [1]; [5]): 95%
- % Inhibition VELE (Velvetleaf (VELE) [1]; [6]): 0%
- % Inhibition VELE (Velvetleaf (VELE) [1]; [7]): 75%
- % Inhibition VELE (Velvetleaf (VELE) [1]; [8]): 85%
- % Inhibition GIFT (Giant foxtail (GIFT); […], PPI, 14 days after PPI (Table 34)): 60%
- % Inhibition GIFT (Giant foxtail (GIFT); in vivo): 45% and 65% and 75% and 50% and 55% and 70% and 90%
- % Inhibition Corn (Corn; [9]): 10%
- % Inhibition Corn (Corn; [10]): 10%
- % Inhibition Corn (Corn; [11]): 10%
- % Inhibition Corn (Corn; [12]): 35%
- % Inhibition Corn (Corn; [13]): 55%
- % Inhibition Corn (Corn; [14]): 0%
- % Inhibition Corn (Corn; [15]): 40%
- % Inhibition Corn (Corn; [16]): 10%
- % Inhibition Corn (Corn; [17]): 5%
- % Inhibition Corn (Corn; [18]): 25%
- % Inhibition Corn (Corn; [19]): 0%
- % Inhibition Corn (Corn; [20]): 30%
- % Inhibition Corn (Corn; [21]): 0%
- % Inhibition Corn (Corn; [22]): 5%
- % Inhibition Corn (Corn; [23]): 10%
- % Inhibition Corn (Corn; Herbicide No. 12 0.0044 Kg/Ha PPI + Biocide No. 1 in furrow, no antidote): 70%
- % Inhibition Corn (Corn; Herbicide No. 12 0.0044 Kg/Ha PPI alone, average of two reps): 40%
- % Inhibition VELE (Velvetleaf (VELE) [2]; […], 14 days after PPI (Table 34)): 90%
- % Inhibition 5 DAP SHCA (Shattercane (SHCA); [24]): 0%
- % Inhibition 13 DAP SHCA (Shattercane (SHCA); [25]): 80%
- % Inhibition SHCA (Shattercane (SHCA); [26]): 75%
- % Inhibition 13 DAP SHCA (Shattercane (SHCA); Herb. […], 13 DAP, after herbicide application): 85%
- % Inhibition SHCA (Shattercane (SHCA); [27]): 75%
- % Inhibition SHCA (Shattercane (SHCA); [28]): 90%
- % Inhibition SHCA (Shattercane (SHCA); […], observed 8 days later (Table 32)): 80%
- % Inhibition SHCA (Shattercane (SHCA); […], observed 8 days later (Table 33)): 40%
- % Inhibition SHCA (Shattercane (SHCA); [29]): 60%
- % Inhibition 5 DAP SHCA (Shattercane (SHCA); in vivo): 15%
- % Inhibition 13 DAP SHCA (Shattercane (SHCA); in vivo): 75%
